Reference: patent publication US11116847B2, “Methylene carbamate linkers for use with targeted-drug conjugates” (Seagen Inc., priority 2013, dated 2021)
Marks after values point to notes of the source that are not given here.

B1: h1F6-1.3: h1F6 antibody (targets CD70+ cells) conjugated to auristatin E Drug-Linker compound 1.3 with MAC unit (conjugate, chains of the INN, looked up)
VH: QVQLVQSGAEVKKPGASVKVSCKASGYTFTNYGMNWVRQAPGQGLKWMGWINTYTGEPTYADAFKGRVTMTRDTSISTAYMELSRLRSDDTAVYYCARDYGDYGMDYWGQGTTVTVSS
VL: DIVMTQSPDSLAVSLGERATINCRASKSVSTSGYSFMHWYQQKPGQPPKLLIYLASNLESGVPDRFSGSGSGTDFTLTISSLQAEDVAVYYCQHSREVPWTFGQGTKVEIK
modifications: auristatin E drug-linker 1.3 with MAC unit
notes: h1F6 antibody (targets CD70+ cells) conjugated to auristatin E Drug-Linker compound 1.3 with MAC unit

Key:
[1] = In vitro stability of drug-linker / model drug-linker compounds to spontaneous hydrolysis of the methylene carbamate unit (LC/MS); assay type: physicochemical; conditions: for Relative Degradation Half-life Observed by LC/MS: 0.1M PBS; for Relative Degradation Half-life Observed by LC/MS / drug-linker degradation: pH 7.4, at 37° C.; for drug-linker degradation: after 14 da incubation in 0.1 M PBS; for comparative hydrolytic stability: PBS, 8.26 compared with 6.4, 5.6 compared with model compound (8.23); for comparative hydrolytic stability / stability to spontaneous hydrolysis when R is dimethylaminoethyl instead of ethyl / degradation / stability to spontaneous hydrolysis: pH 7.4, 37° C.; for stability to spontaneous hydrolysis when R is dimethylaminoethyl instead of ethyl / degradation / stability to spontaneous hydrolysis: 0.1 M phosphate buffered saline; for stability to spontaneous hydrolysis when R is dimethylaminoethyl instead of ethyl: 7 days, compared with 8.26; for degradation / stability to spontaneous hydrolysis: tested every 24 h for 7 days by LC/MS
Description: General procedure for testing Drug-Linker stability: Final N-acetyl products of Example 8 were dissolved in 1 mL 0.1 M phosphate buffered saline, pH 7.4, in a vial at 37° C. LC/MS samples were prepared by adding 2 μL aliquots of incubated compound solution to 100 μL of MeOH in an HPLC vial. Each conjugate was tested every 24 h for 7 days.
For evaluation of in vitro stability of Compound 7.7 this Drug-Linker compound was converted to its N-acetylcysteine conjugate (NAC-7.7), which provide a model LDC with NAC serving as a surrogate for a targeting antibody Ligand Unit. For that purpose eight microliters of a 8 mM DMSO stock of Drug-Linker Compound was diluted in phosphate-buffered saline (0.39 mL). The maleimide moiety in each Drug-Linker Compound was then quenched with N-acetylcysteine (0.8 μL, 100 mM stock), and the material was stored in a 37° C. incubator. Aliquots were drawn at various time points out to 14 days and analyzed by UPLC-MS for drug-linker integrity.
Stability testing was conducted as in Example 9.

[2] = tested on: Type B-1 β-glucuronidase (bovine liver); assay: Release of free drug or model drug from NAC-conjugates after glucuronidase activation of the Self-immolative Assembly Unit; assay type: biochemical; conditions: NAC-conjugate corresponding to the named model drug-linker compound (N-acetyl cap replaced by maleimide Stretcher quenched with N-acetyl-cysteine)
Description: Release of free drug from the NAC-7.7 conjugate derived from the Drug-Linker Compound of Example 7 was evaluated in the following manner: An enzyme stock was prepared by dissolving Type B-1 β-glucuronidase (bovine liver, 1,644,000 units/g solid) in pH 5 100 mM sodium acetate buffer to a working concentration of 0.5 mg/mL. Five microliters of 8 mM drug-linker stock of compound 7.7 was added to 12.5 μL DMSO, 26.3 μL of phosphate-buffered saline, and 6.75 μL of 100 mM N-acetylcysteine. The quenched linker was then diluted with 0.45 mL enzyme stock. The enzymatic reaction was then incubated at 37 C, with multiple time points taken at 1, 10, 20, and 40 minutes. Each time point sample consisted of 20 μL reaction diluted in 5 volumes ice cold methanol and cooled to −20 C until all the samples were withdrawn. The samples were then centrifuged at 12,000 g for 5 minutes and 20 μL of supernatant was analyzed by UPLC-MS. After 20 minutes of enzyme digestion the drug-linker was completely consumed. By 40 minutes, the majority of the material was free drug, indicating effectively complete drug release from the linker system.
Releases of stand-in “free drugs” from NAC conjugates incorporating the Drug-Linker moieties from Example 8 were also studied. Those compounds were prepared by replacing the N-acetyl capping group with N-3-(propionoyl)-maleimide, which introduces a maleimide Stretcher Unit precursor, in the amino intermediates used for the preparation of model drug linker compounds 8.23-8.30. The maleimide moieties are then quenched with N-acetyl-cysteine as previously described for the preparation of NAC-7.7. The NAC-conjugates derived from the amino intermediates of Example 8 have the generalized structure of
[drawing 194] wherein T* is the oxygen or sulfur heteroatom from the hydroxyl or sulfhydryl functional group of the primary alcohol or thiol-containing compound or the oxygen heteroatom from the hydroxyl functional group of the secondary or tertiary alcohol-containing compound or from the phenolic-containing compound of Table 3.

786-0 = assay: In vitro cytotoxic activity of ADCs; assay type: cell-based; conditions: Table 6; 786-0 CD70+
Description: (§1) The targeting antibody ligands cAC10 and h1F6 are described in U.S. Pat. […] cAC10-1006 and hF16-1006, referenced in the following tables, is the chimeric AC10 antibody and the humanized F16 antibody, respectively, conjugated to monomethyl auristatin E (MMAE) at its N terminus via a carbamate functional group to a val-cit-PABA self-immolative moiety having formula XVIII and was used as a control. The resultant ADCs were tested against multiple cell lines to determine in vitro activity, the results from which are summarized in Tables 5 and 6.

Karpas 299 = assay: In vitro cytotoxic activity of ADCs; assay type: cell-based; conditions: Table 6; Karpas 299 CD30+ CD70−
Description: as §1

Caki-1 = assay: In vitro cytotoxic activity of ADCs; assay type: cell-based; conditions: Table 6; Caki-1 CD70+
Description: as §1

L540cy = assay: In vitro cytotoxic activity of ADCs; assay type: cell-based; conditions: Table 6; L540cy CD30+ CD70 (low)
Description: as §1

Molecule	Relative Degradation Half-life Observed by LC/MS [1]	Time to 100% Release [2]	degradation / stability to spontaneous hydrolysis [1]	also measured
CCN(CO[C@H]1C2[C@H]3O[C@H]3[C@H]3C4=C(CC[C@]3(C)[C@@]23O[C@H]3[C@@H]2O[C@]12C(C)C)C(=O)OC4)C(=O)OCc1ccc(O[C@@H]2OC(C(=O)O)[C@@H](O)[C@H](O)C2O)c(NC(=O)CCNC(=O)CCN2C(=O)C=CC2=O)c1 (some centres unmarked) [Compound 4.5]	None Observed			drug-linker degradation [1]: No indication of drug-linker degradation
CO[C@H]1C[C@@H]2CC[C@@H](C)[C@@](O)(O2)C(=O)C(=O)N2CCCC[C@H]2C(=O)O[C@H]([C@@H](C)C[C@H]2CC[C@@H](OCCOCNC(=O)OCc3ccc(NC(=O)[C@H](CCCNC(N)=O)NC(=O)[C@@H](NC(=O)CCN4C(=O)C=CC4=O)C(C)C)cc3)[C@H](OC)C2)CC(=O)[C@H](C)/C=C(\C)[C@@H](O)[C@@H](OC)C(=O)[C@H](C)C[C@H](C)/C=C/C=C/C=C/1C [Compound 5.6]	170 h			comparative hydrolytic stability [1]: even better hydrolytic stability; drug-linker degradation [1]: No indication of drug-linker degradation
C=CC[C@@H]1/C=C(\C)C[C@H](C)C[C@H](OC)[C@H]2O[C@@](O)(C(=O)C(=O)N3CCCC[C@H]3C(=O)O[C@H](/C(C)=C/C3CC[C@@H](OCNC(=O)OCc4ccc(NC(=O)[C@H](CCCNC(N)=O)NC(=O)[C@@H](NC(=O)CCN5C(=O)C=CC5=O)C(C)C)cc4)[C@H](OC)C3)[C@H](C)[C@@H](O)CC1=O)[C@H](C)C[C@@H]2OC (some centres unmarked) [Compound 6.4]	None Observed			comparative hydrolytic stability [1]: acceptable stability; drug-linker degradation [1]: No indication of drug-linker degradation; half-life ([1]; phosphate buffered saline, 0.1 M PBS buffer, pH 7.4 at 37° C.): 10 h
CCN(COCCc1ccccc1)C(=O)OCc1ccc(O[C@@H]2O[C@H](C(=O)O)[C@@H](O)[C@H](O)[C@H]2O)c(NC(C)=O)c1 [Compound 8.25, (2S,3S,4S,5R,6S)-6-(2-acetamido-4-(((ethyl(phenethoxymethyl)carbamoyl)oxy)methyl)phenoxy)-3,4,5-trihydroxytetrahydro-2H-pyran-2-carboxylic acid]	170 h	15 min	suitable stability	stability to spontaneous hydrolysis when R is dimethylaminoethyl instead of ethyl [1]: same excellent stability
CCN(COC(C)Cc1ccccc1)C(=O)OCc1ccc(O[C@@H]2O[C@H](C(=O)O)[C@@H](O)[C@H](O)[C@H]2O)c(NC(C)=O)c1 (stereo partly drawn) [Compound 8.26, (2S,3S,4S,5R,6S)-6-(2-acetamido-4-(((ethyl(((-phenylpropan-2-yl)oxy)methyl)carbamoyl)oxy)methyl)phenoxy)-3,4,5-trihydroxytetrahydro-2H-pyran-2-carboxylic acid]	None Observed	45 min	no signs of degradation	comparative hydrolytic stability [1]: increase stability
CCN(COC(C)(C)Cc1ccccc1)C(=O)OCc1ccc(O[C@@H]2O[C@H](C(=O)O)[C@@H](O)[C@H](O)[C@H]2O)c(NC(C)=O)c1 [Compound 8.27, (2S,3S,4S,5R,6S)-6-(2-acetamido-4-(((ethyl(((2-methyl-1-phenylpropan-2-yl)oxy)methyl)carbamoyl)oxy)methyl)phenoxy)-3,4,5-trihydroxytetrahydro-2H-pyran-2-carboxylic acid]	170 h	15 min	suitable stability	stability to spontaneous hydrolysis when R is dimethylaminoethyl instead of ethyl [1]: same excellent stability
CCN(COc1cccc2ccccc12)C(=O)OCc1ccc(O[C@@H]2O[C@H](C(=O)O)[C@@H](O)[C@H](O)[C@H]2O)c(NC(C)=O)c1 [Compound 8.28, (2S,3S,4S,5R,6S)-6-(2-acetamido-4-(((ethyl((naphthalen-1-yloxy)methyl)carbamoyl)oxy)methyl)phenoxy)-3,4,5-trihydroxytetrahydro-2H-pyran-2-carboxylic acid]	None Observed	25 min	excellent stability	
CCN(CSCCc1ccccc1)C(=O)OCc1ccc(O[C@@H]2O[C@H](C(=O)O)[C@@H](O)[C@H](O)[C@H]2O)c(NC(C)=O)c1 [Compound 8.29, (2S,3S,4S,5R,6S)-6-(2-acetamido-4-(((ethyl((phenethylthio)methyl)carbamoyl)oxy)methyl)phenoxy)-3,4,5-trihydroxytetrahydro-2H-pyran-2-carboxylic acid]	None Observed	40 min	no sign of degradation	
CC(=O)Nc1cc(COC(=O)N(CCN(C)C)COCCc2ccccc2)ccc1O[C@@H]1O[C@H](C(=O)O)[C@@H](O)[C@H](O)[C@H]1O [Compound 8.30, (2S,3S,4S,5R,6S)-6-(2-acetamido-4-((((2-(dimethylamino)ethyl)(phenethoxymethyl)carbamoyl)oxy)methyl)phenoxy)-3,4,5-trihydroxytetrahydro-2H-pyran-2-carboxylic acid]	None Observed	15 min		
CC(=O)Nc1cc(COC(=O)N(CCN(C)C)COC(C)(C)Cc2ccccc2)ccc1O[C@@H]1O[C@H](C(=O)O)[C@@H](O)[C@H](O)[C@H]1O [Compound 8.31, (2S,3S,4S,5R,6S)-6-(2-acetamido-4-((((2-(dimethylamino)ethyl)(((2-methyl-1-phenylpropan-2-yl)oxy)methyl)carbamoyl)oxy)methyl)phenoxy)-3,4,5-trihydroxytetrahydro-2H-pyran-2-carboxylic acid]	None Observed	15 min		
COCCOCCOCCOCCOCCOCCOCCOCCN(COC(C)Cc1ccccc1)C(=O)OCc1ccc(O[C@@H]2O[C@H](C(=O)O)[C@@H](O)[C@H](O)[C@H]2O)c(NC(C)=O)c1 (stereo partly drawn) [Compound 8.32, (2S,3S,4S,5R,6S)-6-(2-acetamido-4-(3-oxo-4-(((1-phenylpropan-2-yl)oxy)methyl)-2,7,10,13,16,19,22,25,28-nonaoxa-4-azanonacosyl)phenoxy)-3,4,5-trihydroxytetrahydro-2H-pyran-2-carboxylic acid]	None Observed	15 min	no signs of degradation	
B1				IC50 (786-0): >1000** ng/mL; IC50 (Karpas 299): >1 µg/mL; IC50 (Caki-1): 0.019 µg/mL; IC50 (L540cy): >1000* ng/mL
